For 18 compounds, TGI results are on record in PubChem BioAssay (NCI).

Holding throughout (assay): NCI-60 cell line screen, 48 h
The test system of assay [1] is PC-3 prostate.
Assay [2] deals with HL-60(TB) leukemia.
The subject of assay [3] is IGROV1 ovarian.
Assay [4] has as its system SK-MEL-2 melanoma.
For assay [5], the system named is CCRF-CEM leukemia.
Assay [6] relates to HCT-116 colon.
Assay [7] concerns NCI-H460 lung.
Assay [8] deals with UO-31 renal.
The test system of assay [9] is OVCAR-5 ovarian.
For assay [10], the system named is SW-620 colon.
In assay [11] the test system is OVCAR-8 ovarian.
Assay [12] deals with MDA-N.
In assay [13] the test system is U251 CNS.
The subject of assay [14] is OVCAR-4 ovarian.
Assay [15] relates to RXF 393 renal.
The test system of assay [16] is CAKI-1 renal.
The test system of assay [17] is SN12C renal.
In assay [18] the test system is MCF7 breast.

Structures are written as SMILES.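 96-well plates; 48 h exposure; 5 concentrations. Endpoints by linear interpolation between flanking doses. Not reached: highest tested concentration assigned. TGI: concentration producing complete growth inhibition.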

With `S=C=Nc1ccc(CSc2nc3ccccc3[nH]2)cc1`, the TGI in [1] was 32 µM; in [2], over 100 µM; in [3], 33.7 µM; in [4], 34.8 µM; in assay [5], 80.4 µM; in assay [6], 44.5 µM. Also, the TGI in [7] was found to be 40.4 µM; in [8], 34.8 µM; in assay [9], 32.4 µM; in assay [10], 31.4 µM; in assay [11] it was 32.3 µM; in assay [12] it was 40.7 µM. Also, the TGI in [13] amounted to 30.9 µM; in [14] it was 31.6 µM; in assay [15] it was 33.5 µM; in [16] it was 33.5 µM; in [17] it was 31.3 µM.

As for `O=c1cc(-c2ccccc2)[nH]c2ccc(S)cc12`, the TGI in assay [1] is over 100 µM; in assay [2], over 100 µM; in assay [3] it was over 100 µM; in [5] it was over 100 µM; in [6], 66.9 µM; in [7] it was over 100 µM. Also, the TGI in [9], in [10], in assay [11], in [18], in assay [13] and in assay [14] was over 100 µM throughout. Moreover, the TGI amounted to 68.2 µM in assay [15] and 37 µM in assay [17].

`CCOC(=O)/C(=C\NC(C)(C)C)c1nc2ccccc2[nH]1`: the TGI in [2] amounted to 34 µM; in assay [3] it was 69.4 µM; in assay [5] it was 39.5 µM; in assay [6], 95.2 µM; in [7], 37.3 µM; in [8] it was 41.3 µM. In addition, the TGI in [9] came out at 55.9 µM; in assay [10] it was 93 µM; in assay [11] it was 64.2 µM; in assay [12], 52.8 µM; in [18] it was 43.5 µM; in [14], 59.6 µM. In addition, the TGI was 59.6 µM in assay [15], 96.2 µM in [16] and 75.6 µM in assay [17].

Consider `COc1cc2oc(=O)cc(C)c2c(OC)c1O`, for which the TGI in [1], in assay [3], in [4], in [5], in assay [6] and in assay [8] was over 100 µM in each case. Also, the TGI in assay [9], in assay [10], in assay [11], in assay [12], in assay [18] and in assay [13] was over 100 µM in each case. Further, the TGI in [14] and in [17] was over 100 µM each time.

For `N#C/C(c1nc2ccccc2[nH]1)=c1\s/c(=C(/N)O)c(=N)n1-c1ccccc1`, the TGI in assay [2], in [3], in [4], in [5], in assay [6] and in assay [7] was over 100 µM each time. The TGI in assay [8], in assay [9], in [10], in assay [11], in assay [13] and in [14] was over 100 µM each time. Also, the TGI in [16] and in assay [17] was over 100 µM each time.

For the compound `[N-]=[N+]=NC1(c2ccccc2)C(=O)C(Cl)=C(c2ccccc2)N(c2ccccc2)C1=O` (configuration not stated), the TGI in assay [2], in assay [3], in assay [4], in [5], in assay [6] and in [7] was over 100 µM each time. Also, the TGI in assay [8], in [9], in assay [10], in assay [11], in assay [13] and in [14] was over 100 µM in each case. In addition, the TGI in [16] and in assay [17] was over 100 µM in each case.

For the compound `Cc1c(O)c(OC2OC(CO)C(O)C(O)C2O)cc2c1CC[C@@H]1C2(C)C(=O)C[C@]2(C)[C@@H]([C@@](C)(O)C3CCC(C)(C)O3)[C@H](O)C[C@@]12C` (some centres not stated), the TGI in assay [1], in [3], in [4], in [5], in assay [6] and in assay [7] was over 100 µM in each case. Besides, the TGI in [8], in assay [9], in assay [10], in assay [11], in assay [18] and in assay [13] was over 100 µM in each case. Besides, the TGI in assay [14], in assay [15], in assay [16] and in assay [17] was over 100 µM each time.

Turning to `CN(C)C1(N(C)C)Oc2c(c(=O)n(C)c(=O)n2C)C(c2ccc(C(F)(F)F)cc2)C1(F)F` (configuration not stated), the TGI in assay [1], in assay [4], in assay [5], in assay [6], in assay [7] and in assay [8] was over 100 µM in each case. Besides, the TGI in assay [9], in assay [10], in assay [18], in assay [13], in assay [14] and in assay [15] was over 100 µM throughout. Besides, in [16], the TGI was over 100 µM.

As for `O=C(c1ccco1)N(C(=S)N1CCN(c2ccccc2)CC1)C1CCCCC1`, the TGI in assay [2], in assay [3], in [4], in assay [5], in assay [6] and in assay [7] was over 100 µM throughout. For the same compound, the TGI in assay [8], in [9], in assay [10], in assay [11], in [13] and in assay [14] was over 100 µM throughout. Also, the TGI in assay [15], in [16] and in assay [17] was over 100 µM throughout.

On to `COCCOC(=O)NCn1cc(-c2ccccc2)nn1`, for which the TGI in assay [1], in [2], in assay [3], in [4], in assay [5] and in assay [6] was over 100 µM each time. In addition, the TGI in assay [7], in assay [9], in assay [10], in assay [11], in assay [18] and in [13] was over 100 µM throughout. For the same compound, the TGI in [14], in assay [16] and in assay [17] was over 100 µM in each case.

As for `COc1cc2c(oc(=O)c3c4occc4cc(OC)c23)c2cccc(OCc3ccccc3)c12`, the TGI in [2], in assay [3], in assay [4], in assay [5], in assay [6] and in assay [7] was over 100 µM in each case. Moreover, the TGI in assay [8], in [9], in [10], in assay [11], in assay [13] and in assay [14] was over 100 µM each time. The TGI in [15], in assay [16] and in assay [17] was over 100 µM each time.

`CSc1nc(Nc2ccccc2Cl)c2c(N)nn(C)c2n1`: the TGI in assay [1], in [3], in [4], in assay [5], in [6] and in assay [7] was over 100 µM each time. Further, the TGI in assay [8], in [9], in [10], in assay [11], in [12] and in assay [13] was over 100 µM throughout. In addition, the TGI in assay [14], in [15], in assay [16] and in assay [17] was over 100 µM throughout.

For the compound `CCC(=O)NI1OC(=O)c2ccccc21`, the TGI in [1], in [2], in [3], in assay [4], in [5] and in [6] was over 100 µM in each case. Moreover, the TGI in [7], in assay [8], in [9], in assay [10], in assay [11] and in [18] was over 100 µM each time. Further, the TGI in [13] was over 100 µM; in assay [14], over 100 µM; in assay [15], over 100 µM; in assay [16] it was 55.2 µM; in assay [17] it was over 100 µM.

`O=C(O)C1OC1C(=O)O` (configuration not stated): the TGI in [3], in [4], in assay [6], in assay [7], in assay [8] and in assay [9] was over 100 µM in each case. Also, the TGI in [10], in assay [11], in assay [12], in assay [18], in assay [13] and in assay [14] was over 100 µM throughout. Moreover, the TGI in assay [15], in [16] and in [17] was over 100 µM in each case.

`COC(=O)[C@H](Cc1ccccc1)NC(=O)N(CCC#N)CCCCN(CCC#N)C(=O)N[C@@H](Cc1ccccc1)C(=O)OC`: the TGI in assay [1], in [4], in assay [6], in assay [7], in assay [8] and in [9] was over 100 µM each time. The TGI in assay [10], in assay [11], in assay [12], in [18], in [13] and in assay [14] was over 100 µM in each case. Moreover, the TGI in assay [15], in [16] and in assay [17] was over 100 µM in each case.

Take `CCOC(=O)Nc1sc2c(c1C#N)CC(C)CC2` (configuration not stated): the TGI in assay [1] is 41.8 µM; in [2], 13.1 µM; in assay [3] it was over 100 µM; in assay [4], 7.87 µM; in [6], 25 µM; in assay [7], 17.3 µM. In addition, the TGI is 46.1 µM in assay [8]; 99.1 µM in [9]; over 100 µM in [10]; over 100 µM in assay [11]; 24.5 µM in [18]; over 100 µM in assay [13]. For the same compound, the TGI in assay [14] was over 100 µM; in assay [15], 70.2 µM; in [16] it was over 100 µM; in assay [17] it was 99 µM.

Take `CCOC(=O)C(C)Sc1nnc(COc2ccc(Cl)cc2)n1-c1ccccc1` (configuration not stated): the TGI in [2] came to 39.7 µM; in assay [3], 50.3 µM; in [4] it was 28.4 µM; in [5], 34 µM; in assay [6] it was 36.5 µM; in assay [7], 31.6 µM. Also, the TGI turned out to be 28 µM in [8]; 94.8 µM in assay [9]; 27.2 µM in [10]; 60 µM in assay [11]; 35.1 µM in assay [13]; 42.6 µM in assay [14]. The TGI was determined as 41.7 µM in assay [15], 31.7 µM in [16] and 32.9 µM in [17].

Take `N#CCCN(CCC#N)c1ccc(C(N=Nc2ccc(Cl)cc2)=Nc2ccccc2)cc1`: the TGI in assay [1] came to 25.5 µM; in assay [3] it was 24.6 µM; in assay [4], 13.9 µM; in assay [6] it was 24.4 µM; in [7] it was 22.5 µM; in assay [8] it was 21.3 µM. Besides, the TGI amounted to 26 µM in assay [9]; 39.2 µM in [10]; 28.7 µM in [11]; 22.8 µM in assay [12]; 28.2 µM in assay [18]; 32.4 µM in assay [13]. For the same compound, the TGI in assay [14] stood at 26 µM; in assay [15], 30.8 µM; in [16] it was 26.1 µM; in assay [17], 33.5 µM.
